The values below come from ChEMBL document CHEMBL3507680, “University of Dundee, Gates Library screen for HepG2 cell viability”.

Molecules are shown by their SMILES.

The nature of the data set: Human HepG2 cell viability assay in 384 well format. In kind it is toxicity, cell-based. Also noted: dose 125 nL, time 70.5 hour; concentration not given beside the values. As to conditions: HepG2 cells, read-out: Inhibition.
`c1cnc(N2CCO[C@H]3CN(CC4CCC4)C[C@H]32)cn1`: the cytotoxicity at 70.5 h is -4.76%. With `CCCc1cc(CNC2CCN(c3cc(C(C)C)nc(C)n3)CC2)on1` the figure was -4.25%; with `CCCn1ccnc1-c1nccn1CCC(N)=O`, -7.75%. Consider `CCOCC1CC2(CCN(C(=O)c3cscn3)CC2)CO1` (stereo not given), for which the cytotoxicity at 70.5 h was -9.28%.

As to `CCn1nc(C)c(NC(=O)C(C)C)c1C`, the cytotoxicity at 70.5 h is -2.76%.

Turning to `O=C(NCC1CCCN1Cc1ccccc1)NCC1(O)CCC1` (stereo not given), the cytotoxicity at 70.5 h amounted to 31.1%. On to `CCCOCC1CCN(C(=O)Cn2cccc(OC)c2=O)C1` (stereo not given), for which the cytotoxicity at 70.5 h is -9.9%. For `CCOc1ccccc1CNC(=O)NCC(c1cnn(C)c1)N(C)C` (stereo not given) the value was -9.13%; for `Cc1ccc(N(CCC#N)C(=O)CCc2cscn2)cc1C`, -3.27%; for `CN1CCc2c1nc1c(c2N)CCC1`, -7.38%. For the molecule `Cc1nc(NC(=O)C(C)N(C)Cc2ccc3c(c2)OCO3)sc1C` (stereo not given), the cytotoxicity at 70.5 h is -5.16%. As for `CSc1ccccc1CN1C[C@H]2CC[C@@H]1CN(Cc1[nH]cnc1C)C2`, the cytotoxicity at 70.5 h came out at 17.6%. With `COCC(=O)N1CCC2(CC1)CN(c1ccccn1)CCO2`, the cytotoxicity at 70.5 h is -7.15%. `c1cnc(-c2nc(CN3CCN(CC4CC4)CC3)cs2)nc1`: the cytotoxicity at 70.5 h was -5.7%. Consider `OCCNc1nccc(-c2c[nH]nc2-c2ccncc2)n1`, for which the cytotoxicity at 70.5 h is -2.75%. With `CC(C)c1nc(C2CCCN2Cc2ccccc2C#N)no1` (stereo not given) the figure was 5.38%; with `CCc1ccc(CN2CCc3c(nnn3C)C2COC)cc1` (stereo not given), -5.54%. With `CNC(=O)c1cn[nH]c1C1CCN(Cc2cn(C)nc2C)C1` (stereo not given) the figure was -12.4%; with `CCCS(=O)(=O)N1C[C@@H](c2nc(C)no2)C[C@H]2OCC[C@H]21`, -0.391%; with `CNC(=O)CN(C(=O)c1cc(C(C)C)no1)c1cccc(F)c1`, 27.9%.

As to `O=C(C1=CCCCC1)N1CCC2(CC1)COC(COc1ccccn1)C2` (stereo not given), the cytotoxicity at 70.5 h is -3.14%. For `Cc1ncc2c(c1-c1noc(-c3cscn3)n1)CCNC2`, the cytotoxicity at 70.5 h was 7.48%. With `O=C(c1ccco1)N1CCCC1C1CCN(Cc2ccccc2)CC1` (stereo not given) the figure was -5.08%; with `Cc1cnn(C2CN(c3ccccc3S(=O)(=O)C(F)(F)F)C2)c1`, 1.3%. With `O=C(c1ccc2nncn2c1)N1CCCC(n2ccnc2)C1` (stereo not given) the figure was -14.2%. With `COc1cccc(-c2nc3c([nH]2)CCNC3)c1F` the figure was -12.1%; with `Cc1ccc2c(c1)c(Sc1ccccc1)c(CC(=O)O)n2C`, 1.6%; with `c1cncc(NCCNC2CCSCC2)c1`, -2.74%. As for `NC(=O)CCn1cc(CNCCCc2ccncc2)c2ccccc21`, the cytotoxicity at 70.5 h is -3.77%. For `CC(=O)CCC(=O)N1CCC2(CC1)N=C(CCC(C)C)NC2=O` the value was -0.28%; for `COC(=O)C1C=CCN1C(=O)c1cc(COc2ccccc2)[nH]n1` (stereo not given), -5.33%; for `CCCn1cc(C(=O)N2CCCC(c3nccn3CCOC)C2)c(C)n1` (stereo not given), 1.39%. With `COCC(=O)NCCn1ccc2c(OC)cccc21` the figure was -6.28%; with `CN1C[C@H](O)C[C@H]1c1nc(-c2ccc(OC(F)(F)F)cc2)no1`, -6.54%. For `Cc1oc(-c2ccco2)nc1CC(=O)N1CCN(CC(C)(C)O)CC1` the value was -17.8%.

Take `CN(CCNC(=O)c1ccnc(-n2ccnc2)c1)C1CC1`: the cytotoxicity at 70.5 h was -1.87%.

As for `CNc1cc(C)nc(N2C[C@@H](C(=O)O)[C@H](C3CC3)C2)n1`, the cytotoxicity at 70.5 h is -1.21%. Turning to `CCNC(=O)C1CCN(Cn2nc(-c3ccccc3)oc2=O)CC1`, the cytotoxicity at 70.5 h is -1.22%.

On to `O=C(C1CC1)N1CC[C@H](O)[C@@H]1Cc1ccccc1`, for which the cytotoxicity at 70.5 h was -3.79%.

For `CNC(=O)CSc1nc2c(cnn2Cc2ccc(F)cc2)c(=O)[nH]1`, the cytotoxicity at 70.5 h was determined as 13.5%. With `CCN(C)c1ccc(CNC(=O)CCn2cc(C)cn2)cc1F` the figure was -1.28%; with `OC1(CN2CCCCC2)CCN(c2nccc(C(F)(F)F)n2)C1` (stereo not given), 18.4%. For `O=C(C1CC1)N1CCC(Oc2ccccc2Cl)CC1` the value was 20.6%; for `CC(C)COC(C)C(=O)NCc1ccccc1Cn1ccnc1` (stereo not given), -7%. With `Cc1cc(CN2CCCC(Cn3cncn3)C2)no1` (stereo not given) the figure was 16%; with `CSCC(=O)N1CCc2c(cnc(C)c2-c2noc(-c3cc[nH]n3)n2)C1`, -12.6%. For the molecule `CNc1cc(C2CCN2c2ncccn2)nc(C)n1` (stereo not given), the cytotoxicity at 70.5 h was -6.05%.

For `CCN(CCO)Cc1cn(-c2cccc(F)c2)nc1-c1ccc(C)o1`, the cytotoxicity at 70.5 h is -14.6%. With `Cc1ccc(OCC(O)CN2CCC(Cn3cc(C)cn3)CC2)cc1` (stereo not given) the figure was -0.66%.

In the case of `CC[C@H]1CN2CC[C@H]1C[C@@H]2CNCc1ccc2c(c1)OCO2`, the cytotoxicity at 70.5 h was -5.69%. Regarding `COCCN1CC2(CCN(Cc3ccco3)CC2)c2ccccc21`, the cytotoxicity at 70.5 h turned out to be 4.26%. Take `CC(Cc1ccc(C(F)(F)F)cc1)C(=O)N1CCCS1(=O)=O` (stereo not given): the cytotoxicity at 70.5 h was -9.41%.

Take `c1cncc(-c2noc(CN3CCn4c(nnc4C4CC4)C3)n2)c1`: the cytotoxicity at 70.5 h is -1.9%. Regarding `Cc1cccnc1CC(C)Nc1ncc(C)c(N(C)C)n1` (stereo not given), the cytotoxicity at 70.5 h came to 2.64%. `CNC(=O)CC1CC2(CCN(Cc3nccs3)CC2)c2ccccc21` (stereo not given): the cytotoxicity at 70.5 h was determined as 0.687%. For `CN(C(=O)CCc1nc(C2CC2)no1)c1cc(C#N)c2ccccc2n1` the value was 0.74%; for `COC(=O)c1cc(OC)ccc1NCC(=O)NCC(=O)N1CCCC1`, -17.6%.

For the molecule `CC(=O)N(C)c1nc(CN2CCCC2c2cnn(C)c2)cs1` (stereo not given), the cytotoxicity at 70.5 h was 1%. For `Cc1cc(C)c2c(N3CCN(CCN4CCOCC4)CC3)ncnc2n1` the value was 16.3%; for `N#Cc1ccc(N2CCC3(CC2)CC(N2CCOCC2)CO3)cc1` (stereo not given), -6.28%; for `Cc1ccccc1S(=O)(=O)NC(=O)C1(c2cccc(Cl)c2)CC1`, -5.62%. With `CN(Cc1ccc(F)cc1F)Cc1cc2c(cc1Br)OCCO2` the figure was -6.67%; with `CC(O)CN1CCC(CN(C)CCC(=O)NC2CCCC2)CC1` (stereo not given), -1.49%; with `COCCn1cnc2ccc(NC(=O)c3ccc(OC)cc3)cc2c1=O`, -9.11%.

As for `COCC(C)N(C)C(=O)c1nc(S(C)(=O)=O)n2ccccc12` (stereo not given), the cytotoxicity at 70.5 h is -0.102%.

With `COC(=O)N1CCC(Nc2ccc(Cl)c(C#N)n2)C1` (stereo not given), the cytotoxicity at 70.5 h is -2.14%. Take `O=C1CCNc2cc3c(cc2CN1Cc1ccco1)OCO3`: the cytotoxicity at 70.5 h is -5.93%. `Cc1nc(C)c(C(=O)N2CCN(CCOc3ccccc3C)CC2)o1`: the cytotoxicity at 70.5 h is -8.43%. For `COCCN1CC(=O)c2sc(NC(C)C)nc2C1` the value was 2.05%. For `Cn1cc(CN2CC[C@@H]3[C@@H]2CCN3C(=O)Cc2cccc(F)c2)cn1` the value was -4.59%; for `Cc1c[nH]c(CN2CCN(C)C3(CCC(=O)N(CC4CC4)CC3)C2)n1` (stereo not given), 19.9%; for `Cc1ccccc1CN1CC[C@@]2(O)CCN(C(=O)C3CCC3)C[C@H]2C1`, 2.03%. For `COCCN1CCO[C@H]2CCN(C(=O)c3ccnnc3)CC[C@@H]21` the value was -8.98%; for `O=C(Cc1ccccc1)N1Cc2nccn2CC(CN2CCCC2)C1` (stereo not given), -0.449%. In the case of `CCC(=O)NCc1cc(C2CC2)n(C2CCCC2)n1`, the cytotoxicity at 70.5 h came to 13.9%. Regarding `O=C(CSc1nnc[nH]1)NCc1sccc1Br`, the cytotoxicity at 70.5 h is -5.23%. For `CCOC(=O)C1CCN(C(=O)Cn2ccc3cc(Br)ccc32)CC1`, the cytotoxicity at 70.5 h turned out to be 24.7%.

As for `Cc1nc(CN2CCCC(N(C)Cc3nnsc3Cl)C2)no1` (stereo not given), the cytotoxicity at 70.5 h was -1.91%. Regarding `Cn1cc(C(=O)N[C@H]2CN(Cc3nccs3)[C@@H]3CCCO[C@H]23)cn1`, the cytotoxicity at 70.5 h was -8.57%. With `CCOc1ccc(C(F)(F)F)cc1NC(=O)N1CCNC(=O)C1`, the cytotoxicity at 70.5 h is -1.6%.

For the molecule `COCC1CN(C(=O)C2=CCCCC2)Cc2cnn(CC3CC3)c21` (stereo not given), the cytotoxicity at 70.5 h is -2.03%.

On to `OCCN1CCCC(c2nccnc2Oc2ccccc2)C1` (stereo not given), for which the cytotoxicity at 70.5 h is -6.87%. For the molecule `CN(Cc1cnn(C)c1)S(=O)(=O)N1CCCC1c1ccco1` (stereo not given), the cytotoxicity at 70.5 h is -0.954%.

As for `c1ccc(C2(NCC3CNc4ccnn4C3)CCC2)cc1` (stereo not given), the cytotoxicity at 70.5 h is -2.65%.

On to `CCOCCSc1nnc(Cc2ccccc2F)o1`, for which the cytotoxicity at 70.5 h was -0.117%.

Turning to `CCOCc1ccccc1NC(=O)NCC(C)(O)c1ccsc1` (stereo not given), the cytotoxicity at 70.5 h was -2.17%.

`Cc1csc(CNC(=O)NC2CCN(c3ncccn3)CC2)n1`: the cytotoxicity at 70.5 h is -11.3%. For `CC1CN(C(=O)CN(Cc2ccccc2Cl)C2CCCC2)CCO1` (stereo not given) the value was 6.53%. For `O=C(NCCc1ccncc1)c1cccc(S(=O)(=O)NC2CC2)c1` the value was 1.33%; for `O=C(Nc1cc(F)ccc1OCC1CCCO1)N1CCSCC1` (stereo not given), 0.0557%; for `Cc1nn(C)c(C)c1C1CCCN1Cc1nc2ccccc2n1C` (stereo not given), 0.883%.

With `N#Cc1cc(F)c(NCCCOCC2CCOC2)c(F)c1` (stereo not given), the cytotoxicity at 70.5 h was determined as 7.98%.

For the molecule `CC(C)c1noc(CCC(=O)N2CCN(C)CC2c2ccccc2)n1` (stereo not given), the cytotoxicity at 70.5 h is -9.08%. For `CN1[C@H](CN2CCCC2)C[C@@H]2CN(C(=O)Cc3cccs3)CC[C@@H]21` the value was 27.9%; for `Cc1cc2c(C)cc(O)cc2c(=O)o1`, -14.8%. With `Cc1nc(N2CCCC2)nc2c1CCN(Cc1nccn1C)CC2` the figure was -10.2%; with `CS(=O)(=O)NCc1cc2n(n1)CCCN(Cc1cc3ccccc3o1)C2`, -5.83%; with `CC(C)Oc1ncccc1CNC(=O)N1CCC(n2cccc2)CC1`, -0.649%.

Consider `CCn1ncc(C(=O)NCCc2nc(-c3cccnc3)n[nH]2)c1C`, for which the cytotoxicity at 70.5 h is -3.1%. For `CCc1noc(CS(=O)(=O)CC(=O)N2c3ccccc3CC2C)n1` (stereo not given) the value was -12.6%.
